Test results as given in US7074789B2, “Kinase inhibitors” (Amgen Inc., priority 1999, dated 2006).

Experiments:
Type in all cases: biochemical
Tek = target: T1, Tek (Homo sapiens, UniProt Q02763); experiment: Kinase inhibition assay (33P transfer), Tek; details: read-out: Tek-1
T1 construct: Kinases are expressed as either kinase domains or full length constructs; made in house
Summary of the method: (§1)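 Each enzyme, purified to near homogeneity by affinity chromatography, was incubated with ATP carrying 33P and a substrate polymer fixed to the plate. Unbound label was removed with dilute phosphoric acid (0.5%) before adding scintillant and counting. Potency is given as the compound level cutting label uptake by 50%.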

Lck = target: T2, Lck (Homo sapiens, UniProt P06239); experiment: Kinase inhibition assay (33P transfer), Lck; details: Table 3; read-out: Lck-1
T2 construct: Kinases are expressed as either kinase domains or full length constructs; made in house
Summary of the method: (§2)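 Each kinase, expressed as a GST- or polyHis-tagged domain or full-length protein, phosphorylated plate-attached poly(Glu,Tyr) 4:1 or poly(Arg,Ser) 3:1 using 33P-ATP. Bound radioactivity was measured by scintillation after a 0.5% phosphoric acid wash.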

AKT = target: T3, AKT (Homo sapiens, UniProt Q9Y243); experiment: Kinase inhibition assay (33P transfer), AKT; details: Table 2, kinase inhibition class; read-out: AKT3-1
T3 construct: Kinases are expressed as either kinase domains or full length constructs; made in house
Summary of the method: as §2

Flt-1 = target: T4, Flt-1 (Homo sapiens, UniProt P17948); experiment: Kinase inhibition assay (33P transfer), Flt-1
T4 construct: Kinases are expressed as either kinase domains or full length constructs; made in house
Summary of the method: as §1

ErbB4 = target: T5, ErbB4 (Homo sapiens, UniProt Q15303); experiment: Kinase inhibition assay (33P transfer), ErbB4; details: read-out: ErbB4-1
T5 construct: Kinases are expressed as either kinase domains or full length constructs; made in house

IGFR-1 = target: T6, IGFR-1 (Homo sapiens, UniProt P08069); experiment: Kinase inhibition assay (33P transfer), IGFR-1; details: Table 2, kinase inhibition class
T6 construct: Kinases are expressed as either kinase domains or full length constructs; made in house

c-Met = target: T7, c-Met (Homo sapiens, UniProt P08581); experiment: Kinase inhibition assay (33P transfer), c-Met; details: Table 2, kinase inhibition class; read-out: Met-1
T7 construct: Kinases are expressed as either kinase domains or full length constructs; made in house
Summary of the method: as §1

Lyn = target: T8, Lyn (Homo sapiens, UniProt P07948); experiment: Kinase inhibition assay (33P transfer), Lyn; details: Table 6, Lyn-1 kinase inhibition class
T8 construct: Kinases are expressed as either kinase domains or full length constructs; made in house
Summary of the method: as §1

FGFR1 = target: T9, FGFR1 (Homo sapiens, UniProt P11362); experiment: Kinase inhibition assay (33P transfer), FGFR1; details: read-out: FGFR1-1
T9 construct: Kinases are expressed as either kinase domains or full length constructs; made in house

EPHB4 = target: T10, EPHB4 (Homo sapiens, UniProt P54760); experiment: Kinase inhibition assay (33P transfer), EPHB4; details: read-out: EPHB4-1
T10 construct: Kinases are expressed as either kinase domains or full length constructs; made in house
T10 sequence (P54760 16-987): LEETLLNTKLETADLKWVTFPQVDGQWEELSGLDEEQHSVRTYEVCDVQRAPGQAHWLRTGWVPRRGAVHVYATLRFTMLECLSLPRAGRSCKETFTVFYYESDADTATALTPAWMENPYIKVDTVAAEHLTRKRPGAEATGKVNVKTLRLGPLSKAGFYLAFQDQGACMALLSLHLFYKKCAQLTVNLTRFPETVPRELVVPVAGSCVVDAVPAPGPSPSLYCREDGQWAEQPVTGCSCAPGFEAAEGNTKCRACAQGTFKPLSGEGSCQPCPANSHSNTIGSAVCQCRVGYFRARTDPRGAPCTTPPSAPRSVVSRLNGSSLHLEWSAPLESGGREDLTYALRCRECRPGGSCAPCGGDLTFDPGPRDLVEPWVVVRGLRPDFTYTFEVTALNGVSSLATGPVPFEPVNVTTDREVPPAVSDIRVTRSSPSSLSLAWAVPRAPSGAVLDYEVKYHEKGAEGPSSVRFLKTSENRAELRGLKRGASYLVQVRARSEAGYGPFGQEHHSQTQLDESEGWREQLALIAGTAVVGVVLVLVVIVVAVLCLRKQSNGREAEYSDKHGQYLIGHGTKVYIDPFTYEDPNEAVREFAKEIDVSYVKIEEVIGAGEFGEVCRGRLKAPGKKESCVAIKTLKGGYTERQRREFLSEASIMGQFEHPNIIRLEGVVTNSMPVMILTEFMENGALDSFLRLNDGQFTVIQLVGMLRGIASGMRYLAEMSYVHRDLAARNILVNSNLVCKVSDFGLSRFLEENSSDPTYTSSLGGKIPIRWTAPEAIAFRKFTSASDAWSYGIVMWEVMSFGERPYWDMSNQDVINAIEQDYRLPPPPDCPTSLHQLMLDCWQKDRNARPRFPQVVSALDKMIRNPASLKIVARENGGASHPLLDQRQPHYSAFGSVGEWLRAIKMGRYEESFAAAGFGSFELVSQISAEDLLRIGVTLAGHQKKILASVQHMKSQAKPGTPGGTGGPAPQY

Fyn = target: T11, Fyn (Homo sapiens, UniProt P06241); experiment: Kinase inhibition assay (33P transfer), Fyn; details: read-out: Fyn-1
T11 construct: Kinases are expressed as either kinase domains or full length constructs; made in house
Summary of the method: as §1

EGFR = target: T12, EGFR (Homo sapiens, UniProt P00533); experiment: Kinase inhibition assay (33P transfer), EGFR; details: Table 2, kinase inhibition class; read-out: EGFR-1
T12 construct: Kinases are expressed as either kinase domains or full length constructs; made in house
Summary of the method: as §1

Ret-1 = target: T13, Ret-1 (Homo sapiens, UniProt P07949); experiment: Kinase inhibition assay (33P transfer), Ret; details: Table 6, Ret-1 kinase inhibition class
T13 construct: Kinases are expressed as either kinase domains or full length constructs; made in house

T8 sequence (P07948 whole entry, species assumed, the tested form may be a part): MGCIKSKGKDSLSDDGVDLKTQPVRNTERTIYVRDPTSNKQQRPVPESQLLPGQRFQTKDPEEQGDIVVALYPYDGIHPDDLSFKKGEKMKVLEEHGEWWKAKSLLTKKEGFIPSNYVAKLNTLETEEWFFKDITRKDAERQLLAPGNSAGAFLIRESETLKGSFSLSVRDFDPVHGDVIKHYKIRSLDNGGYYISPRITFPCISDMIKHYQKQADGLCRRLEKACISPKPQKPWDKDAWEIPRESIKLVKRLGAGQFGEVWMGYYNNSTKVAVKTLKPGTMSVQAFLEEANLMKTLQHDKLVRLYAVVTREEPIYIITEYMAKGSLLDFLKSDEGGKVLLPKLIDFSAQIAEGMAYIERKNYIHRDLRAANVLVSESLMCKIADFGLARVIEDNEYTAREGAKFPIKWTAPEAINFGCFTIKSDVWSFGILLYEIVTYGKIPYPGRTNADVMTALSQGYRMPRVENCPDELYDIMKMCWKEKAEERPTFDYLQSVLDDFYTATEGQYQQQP
T5 sequence (Q15303 26-1308, species assumed): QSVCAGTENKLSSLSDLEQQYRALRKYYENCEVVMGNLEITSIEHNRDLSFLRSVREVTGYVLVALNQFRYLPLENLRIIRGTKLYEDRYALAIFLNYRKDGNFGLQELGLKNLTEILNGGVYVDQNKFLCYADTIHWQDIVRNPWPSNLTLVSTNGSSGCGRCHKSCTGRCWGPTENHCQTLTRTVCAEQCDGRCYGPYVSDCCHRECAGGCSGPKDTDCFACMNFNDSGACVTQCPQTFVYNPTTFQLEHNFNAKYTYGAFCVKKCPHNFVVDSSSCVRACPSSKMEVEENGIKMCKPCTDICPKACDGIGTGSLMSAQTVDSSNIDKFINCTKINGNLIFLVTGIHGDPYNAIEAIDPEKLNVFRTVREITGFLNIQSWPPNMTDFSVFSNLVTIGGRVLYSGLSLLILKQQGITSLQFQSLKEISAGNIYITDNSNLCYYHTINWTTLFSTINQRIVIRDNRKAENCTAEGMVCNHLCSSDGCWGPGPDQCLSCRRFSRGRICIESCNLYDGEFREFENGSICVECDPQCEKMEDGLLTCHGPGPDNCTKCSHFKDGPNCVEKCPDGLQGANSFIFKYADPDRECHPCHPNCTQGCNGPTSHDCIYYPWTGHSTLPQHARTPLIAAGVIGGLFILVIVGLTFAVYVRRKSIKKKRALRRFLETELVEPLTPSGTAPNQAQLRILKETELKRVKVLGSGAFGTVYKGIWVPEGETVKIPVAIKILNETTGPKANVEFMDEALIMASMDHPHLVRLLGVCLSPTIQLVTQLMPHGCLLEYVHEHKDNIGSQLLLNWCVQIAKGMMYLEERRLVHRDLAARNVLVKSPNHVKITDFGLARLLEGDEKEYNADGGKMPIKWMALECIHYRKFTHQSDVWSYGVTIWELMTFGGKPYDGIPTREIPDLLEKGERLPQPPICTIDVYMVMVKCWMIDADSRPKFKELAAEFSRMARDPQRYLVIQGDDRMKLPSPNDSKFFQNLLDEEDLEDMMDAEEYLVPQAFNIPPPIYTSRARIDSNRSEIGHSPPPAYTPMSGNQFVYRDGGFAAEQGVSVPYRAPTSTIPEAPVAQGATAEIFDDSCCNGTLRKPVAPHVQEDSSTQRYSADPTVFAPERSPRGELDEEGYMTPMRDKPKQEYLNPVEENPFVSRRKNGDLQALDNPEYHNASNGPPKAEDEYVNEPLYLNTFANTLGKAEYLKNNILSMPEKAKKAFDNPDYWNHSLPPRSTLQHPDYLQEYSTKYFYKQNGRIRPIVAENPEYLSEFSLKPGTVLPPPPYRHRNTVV
T1 sequence (Q02763 23-1124, species assumed): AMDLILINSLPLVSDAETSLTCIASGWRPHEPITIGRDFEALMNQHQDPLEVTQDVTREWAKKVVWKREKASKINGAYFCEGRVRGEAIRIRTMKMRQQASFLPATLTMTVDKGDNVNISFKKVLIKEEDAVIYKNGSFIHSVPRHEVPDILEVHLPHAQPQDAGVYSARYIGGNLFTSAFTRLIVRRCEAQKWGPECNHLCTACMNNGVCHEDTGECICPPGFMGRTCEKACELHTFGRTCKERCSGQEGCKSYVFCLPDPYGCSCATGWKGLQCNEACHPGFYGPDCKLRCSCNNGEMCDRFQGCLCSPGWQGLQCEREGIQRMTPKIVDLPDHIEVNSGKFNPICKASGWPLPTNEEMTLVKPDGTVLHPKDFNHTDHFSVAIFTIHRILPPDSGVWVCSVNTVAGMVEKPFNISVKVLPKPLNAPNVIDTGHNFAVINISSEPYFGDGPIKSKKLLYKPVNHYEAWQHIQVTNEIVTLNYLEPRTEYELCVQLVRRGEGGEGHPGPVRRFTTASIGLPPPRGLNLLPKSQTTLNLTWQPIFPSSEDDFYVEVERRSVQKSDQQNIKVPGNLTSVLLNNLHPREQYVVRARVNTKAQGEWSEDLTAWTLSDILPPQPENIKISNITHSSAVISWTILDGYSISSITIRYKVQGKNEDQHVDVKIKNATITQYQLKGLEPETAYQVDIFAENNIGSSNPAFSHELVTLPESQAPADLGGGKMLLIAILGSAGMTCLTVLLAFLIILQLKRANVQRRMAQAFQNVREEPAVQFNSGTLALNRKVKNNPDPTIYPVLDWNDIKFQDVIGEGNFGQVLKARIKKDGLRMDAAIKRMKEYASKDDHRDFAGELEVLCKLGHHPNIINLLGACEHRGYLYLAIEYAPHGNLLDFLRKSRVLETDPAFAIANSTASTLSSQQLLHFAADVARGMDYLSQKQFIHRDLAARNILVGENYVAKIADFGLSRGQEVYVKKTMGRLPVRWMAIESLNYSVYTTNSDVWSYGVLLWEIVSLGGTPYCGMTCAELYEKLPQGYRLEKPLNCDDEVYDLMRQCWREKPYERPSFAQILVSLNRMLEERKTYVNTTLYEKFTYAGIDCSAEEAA
T6 sequence (P08069 31-1367): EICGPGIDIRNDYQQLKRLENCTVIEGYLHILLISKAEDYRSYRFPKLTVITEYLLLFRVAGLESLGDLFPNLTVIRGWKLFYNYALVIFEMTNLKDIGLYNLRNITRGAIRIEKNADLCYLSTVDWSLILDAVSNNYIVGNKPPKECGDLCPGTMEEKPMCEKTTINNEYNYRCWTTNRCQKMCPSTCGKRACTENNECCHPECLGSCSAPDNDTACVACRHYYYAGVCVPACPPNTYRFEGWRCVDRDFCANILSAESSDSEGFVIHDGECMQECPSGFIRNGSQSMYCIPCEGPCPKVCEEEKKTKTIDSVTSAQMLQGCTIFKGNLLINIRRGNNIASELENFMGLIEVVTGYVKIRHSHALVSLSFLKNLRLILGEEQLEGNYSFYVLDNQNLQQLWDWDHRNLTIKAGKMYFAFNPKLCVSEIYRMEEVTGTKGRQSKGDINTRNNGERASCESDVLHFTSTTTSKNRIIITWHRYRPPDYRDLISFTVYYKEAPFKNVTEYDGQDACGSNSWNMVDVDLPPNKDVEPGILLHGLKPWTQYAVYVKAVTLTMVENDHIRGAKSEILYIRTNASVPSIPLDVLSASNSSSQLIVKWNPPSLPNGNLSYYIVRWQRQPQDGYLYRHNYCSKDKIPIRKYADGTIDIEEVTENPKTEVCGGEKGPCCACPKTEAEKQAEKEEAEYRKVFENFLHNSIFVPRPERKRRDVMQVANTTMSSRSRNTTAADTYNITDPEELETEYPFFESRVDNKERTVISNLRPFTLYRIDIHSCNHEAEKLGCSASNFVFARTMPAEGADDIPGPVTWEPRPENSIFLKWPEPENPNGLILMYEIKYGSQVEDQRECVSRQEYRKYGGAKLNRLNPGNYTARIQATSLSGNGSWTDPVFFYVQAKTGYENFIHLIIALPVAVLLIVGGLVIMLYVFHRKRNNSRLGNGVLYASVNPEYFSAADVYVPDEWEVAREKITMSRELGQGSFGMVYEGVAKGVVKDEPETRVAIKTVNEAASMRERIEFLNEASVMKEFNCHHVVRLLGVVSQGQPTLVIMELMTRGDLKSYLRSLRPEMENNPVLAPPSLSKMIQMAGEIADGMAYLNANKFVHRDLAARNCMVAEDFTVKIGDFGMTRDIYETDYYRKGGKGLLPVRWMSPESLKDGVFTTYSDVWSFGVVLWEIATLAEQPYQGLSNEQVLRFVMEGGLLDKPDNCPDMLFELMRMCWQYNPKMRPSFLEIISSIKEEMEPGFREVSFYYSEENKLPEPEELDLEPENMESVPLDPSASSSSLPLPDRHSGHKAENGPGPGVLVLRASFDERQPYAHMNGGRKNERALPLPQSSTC
T2 sequence (P06239 whole entry, species assumed, the tested form may be a part): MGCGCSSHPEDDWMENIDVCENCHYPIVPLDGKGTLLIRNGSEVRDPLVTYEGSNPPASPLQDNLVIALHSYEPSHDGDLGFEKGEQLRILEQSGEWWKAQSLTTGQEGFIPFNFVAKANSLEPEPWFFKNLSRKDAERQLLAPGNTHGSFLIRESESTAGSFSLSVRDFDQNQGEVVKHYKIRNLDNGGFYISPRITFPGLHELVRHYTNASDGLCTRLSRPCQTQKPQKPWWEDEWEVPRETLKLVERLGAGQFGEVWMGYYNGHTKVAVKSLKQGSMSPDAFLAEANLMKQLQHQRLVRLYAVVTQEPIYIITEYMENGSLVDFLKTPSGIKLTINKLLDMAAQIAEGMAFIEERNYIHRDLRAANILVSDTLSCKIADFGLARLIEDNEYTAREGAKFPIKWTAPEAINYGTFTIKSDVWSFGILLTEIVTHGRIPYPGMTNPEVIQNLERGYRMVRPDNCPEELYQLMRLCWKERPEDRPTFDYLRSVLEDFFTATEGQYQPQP

Structure (SMILES)	IC50 (Tek)	IC50 (Lck)	IC50 (AKT)	IC50 (Flt-1)	IC50 (ErbB4)	IC50 (IGFR-1)	IC50 (c-Met)	IC50 (Lyn)	IC50 (FGFR1)	IC50 (EPHB4)	IC50 (Fyn)	IC50 (EGFR)	IC50 (Ret-1)
COc1cc(Nc2ncnc(N3CCCC4CCCCC43)n2)cc(OC)c1OC (stereo not shown) [Compound 314]	1 to 6.01 µM	< 1 µM	> 11.3 µM	1 to 6.01 µM	1 to 6.01 µM	> 11.3 µM	1 to 6.01 µM	< 1 µM	6.01 to 8.76 µM	> 11.3 µM	1 to 6.01 µM	< 1 µM	> 11.3 µM
COc1cc(Nc2ncnc(-n3c(NC(C)=O)nc4ccccc43)n2)cc(OC)c1OC [Compound 334]	> 10.3 µM	8.04 to 10.3 µM	5.51 to 8.04 µM	0.919 to 5.51 µM	> 10.3 µM	< 0.919 µM	> 10.3 µM	> 10.3 µM	0.919 to 5.51 µM	5.51 to 8.04 µM	> 10.3 µM	> 10.3 µM	0.919 to 5.51 µM
COc1cc(Nc2ncnc(-n3ccc4cc(Cl)ccc43)n2)cc(OC)c1OC [Compound 198]	> 10.9 µM	> 10.9 µM	> 10.9 µM	0.971 to 5.83 µM	> 10.9 µM	> 10.9 µM	> 10.9 µM	> 10.9 µM	> 10.9 µM	> 10.9 µM	> 10.9 µM	> 10.9 µM	> 10.9 µM
COc1cc(Nc2ncnc(Nc3cc(F)ccc3F)n2)cc(OC)c1OC [Compound 316]	> 11.6 µM	> 11.6 µM	> 11.6 µM	8.99 to 11.6 µM	> 11.6 µM	< 1.03 µM	> 11.6 µM	1.03 to 6.16 µM	> 11.6 µM	8.99 to 11.6 µM	8.99 to 11.6 µM	1.03 to 6.16 µM	1.03 to 6.16 µM
COc1ccc(Nc2ccc(Nc3ncnc(Nc4cc(OC)c(OC)c(OC)c4)n3)cc2)cc1 [Compound 922]	0.843 to 5.06 µM	0.843 to 5.06 µM	0.843 to 5.06 µM	5.06 to 7.38 µM	< 0.843 µM	0.843 to 5.06 µM	5.06 to 7.38 µM	< 0.843 µM	0.843 to 5.06 µM	5.06 to 7.38 µM	0.843 to 5.06 µM	0.843 to 5.06 µM	0.843 to 5.06 µM
COc1cc(Nc2ncnc(Nc3ccc(C)c(F)c3)n2)cc(OC)c1OC [Compound 300]	9.08 to 11.7 µM	1.04 to 6.23 µM	> 11.7 µM	> 11.7 µM	1.04 to 6.23 µM	< 1.04 µM	6.23 to 9.08 µM	< 1.04 µM	6.23 to 9.08 µM	1.04 to 6.23 µM	1.04 to 6.23 µM	< 1.04 µM	1.04 to 6.23 µM
COc1ccc(N(C)c2ncnc(Nc3cc(OC)c(OC)c(OC)c3)n2)cc1 [Compound 106]	> 11.3 µM	6.04 to 8.81 µM	> 11.3 µM	< 1.01 µM	6.04 to 8.81 µM	6.04 to 8.81 µM	1.01 to 6.04 µM		1.01 to 6.04 µM	1.01 to 6.04 µM		1.01 to 6.04 µM	1.01 to 6.04 µM
COc1cc(Nc2ncnc(Nc3ccc(C(=O)O)cc3)n2)cc(OC)c1OC [Compound 104]	> 11.3 µM	6.04 to 8.81 µM	> 11.3 µM	1.01 to 6.04 µM		6.04 to 8.81 µM	> 11.3 µM	> 11.3 µM	> 11.3 µM	< 1.01 µM	1.01 to 6.04 µM	1.01 to 6.04 µM	> 11.3 µM
COc1ccc(Nc2ncnc(Nc3ccc(Oc4ccccc4)cc3)n2)cc1OC [Compound 929]	> 10.8 µM	0.963 to 5.78 µM	> 10.8 µM	> 10.8 µM	0.963 to 5.78 µM	8.42 to 10.8 µM	< 0.963 µM		> 10.8 µM	> 10.8 µM		< 0.963 µM	5.78 to 8.42 µM
